Assay results reported in ChEMBL document CHEMBL1629464, “Aldehyde oxidase: an enzyme of emerging importance in drug discovery” (J Med Chem, 2010).

Molecular target: T1, Aldehyde oxidase 1 (Mus musculus, UniProt O54754)
T1 sequence (O54754 whole entry): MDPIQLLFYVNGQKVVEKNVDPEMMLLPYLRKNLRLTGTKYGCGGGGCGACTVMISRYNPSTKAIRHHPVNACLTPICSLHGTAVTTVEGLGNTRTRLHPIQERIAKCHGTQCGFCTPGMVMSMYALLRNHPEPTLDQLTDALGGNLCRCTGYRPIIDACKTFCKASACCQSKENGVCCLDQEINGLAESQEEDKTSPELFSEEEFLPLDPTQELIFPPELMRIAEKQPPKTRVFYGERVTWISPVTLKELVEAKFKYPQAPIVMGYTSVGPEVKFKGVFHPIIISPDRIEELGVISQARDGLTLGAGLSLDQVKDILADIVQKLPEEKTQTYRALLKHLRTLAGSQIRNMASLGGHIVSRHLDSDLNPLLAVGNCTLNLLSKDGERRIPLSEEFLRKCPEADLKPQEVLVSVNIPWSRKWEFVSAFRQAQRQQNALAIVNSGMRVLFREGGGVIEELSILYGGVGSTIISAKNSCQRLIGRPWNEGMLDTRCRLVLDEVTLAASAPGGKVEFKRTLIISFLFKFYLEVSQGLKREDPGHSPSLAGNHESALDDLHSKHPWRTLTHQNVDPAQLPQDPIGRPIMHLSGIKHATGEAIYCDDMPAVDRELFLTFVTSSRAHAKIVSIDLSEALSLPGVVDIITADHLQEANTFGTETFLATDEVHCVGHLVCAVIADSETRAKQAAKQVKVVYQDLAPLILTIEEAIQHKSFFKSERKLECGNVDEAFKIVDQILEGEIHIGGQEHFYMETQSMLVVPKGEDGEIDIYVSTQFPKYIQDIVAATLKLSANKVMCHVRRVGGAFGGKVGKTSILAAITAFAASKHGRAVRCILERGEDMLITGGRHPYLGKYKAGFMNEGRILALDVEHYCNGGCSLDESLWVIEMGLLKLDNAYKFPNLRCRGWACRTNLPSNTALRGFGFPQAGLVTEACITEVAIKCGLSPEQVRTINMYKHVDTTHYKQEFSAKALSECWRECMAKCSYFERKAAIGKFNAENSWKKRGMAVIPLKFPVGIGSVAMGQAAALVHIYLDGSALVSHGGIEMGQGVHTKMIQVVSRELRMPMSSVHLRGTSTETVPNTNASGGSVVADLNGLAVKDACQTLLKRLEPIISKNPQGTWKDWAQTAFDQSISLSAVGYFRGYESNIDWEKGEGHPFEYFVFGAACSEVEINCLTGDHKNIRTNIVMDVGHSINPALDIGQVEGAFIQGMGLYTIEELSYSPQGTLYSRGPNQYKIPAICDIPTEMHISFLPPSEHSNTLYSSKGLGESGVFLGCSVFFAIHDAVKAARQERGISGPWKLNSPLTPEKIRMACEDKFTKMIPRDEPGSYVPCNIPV
Assay: Inhibition of mouse aldehyde oxidase

OCCN1CCN(CCCN2c3ccccc3Sc3ccc(Cl)cc32)CC1 [PERPHENAZINE]
IC50: 6.1 µM
